Here are results for 15 compounds from ChEMBL document CHEMBL4414554, “Colocalization Strategy Unveils an Underside Binding Site in the Transmembrane Domain of Smoothened Receptor” (J Med Chem, 2019).

pIC50, pKi: −log10 of the molar value. Calls of active or inactive are those of the source. The rule behind the calls is not given here.

In test [1] the target is Protein smoothened (Mus musculus, UniProt P56726). The test is described as follows: (§1) Antagonist activity at SMO in mouse NIH/3T3 cells harboring Gli-responsive firefly luciferase gene assessed as inhibition of SAG-induced response preincubated for 2 hrs followed by SAG addition and measured after 24 hrs by Bright-Glo luciferase assay. Type of test: cell-based.
Protein smoothened (Mus musculus, UniProt P56726), sequence (P56726 whole entry): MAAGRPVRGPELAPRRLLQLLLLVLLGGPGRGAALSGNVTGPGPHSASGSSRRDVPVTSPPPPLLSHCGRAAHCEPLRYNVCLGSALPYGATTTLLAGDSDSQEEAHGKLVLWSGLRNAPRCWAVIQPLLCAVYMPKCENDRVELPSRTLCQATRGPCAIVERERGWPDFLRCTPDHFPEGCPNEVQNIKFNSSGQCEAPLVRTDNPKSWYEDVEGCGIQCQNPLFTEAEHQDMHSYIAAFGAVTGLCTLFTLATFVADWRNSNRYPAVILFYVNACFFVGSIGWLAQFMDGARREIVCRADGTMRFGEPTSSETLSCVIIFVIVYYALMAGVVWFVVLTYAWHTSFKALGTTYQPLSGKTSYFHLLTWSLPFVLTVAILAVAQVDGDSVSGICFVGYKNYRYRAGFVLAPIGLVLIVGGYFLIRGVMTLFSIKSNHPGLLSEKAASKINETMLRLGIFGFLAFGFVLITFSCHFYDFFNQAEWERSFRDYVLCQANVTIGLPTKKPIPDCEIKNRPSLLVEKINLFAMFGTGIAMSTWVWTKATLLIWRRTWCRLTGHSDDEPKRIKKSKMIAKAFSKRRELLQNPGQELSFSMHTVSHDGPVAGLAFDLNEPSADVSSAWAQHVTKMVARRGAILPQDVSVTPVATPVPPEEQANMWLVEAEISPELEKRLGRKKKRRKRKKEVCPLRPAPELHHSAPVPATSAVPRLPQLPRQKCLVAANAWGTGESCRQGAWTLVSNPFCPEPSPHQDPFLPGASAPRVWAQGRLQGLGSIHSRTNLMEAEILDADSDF
The target of test [2] is T1, Protein smoothened (Homo sapiens, UniProt Q99835). Nature of the test: Binding affinity to recombinant SMO Lys510 residue (unknown origin) at 20 uM preincubated for 3 hrs followed by UV irradiation for 15 mins by MS/MS analysis.
T1 sequence (Q99835 whole entry): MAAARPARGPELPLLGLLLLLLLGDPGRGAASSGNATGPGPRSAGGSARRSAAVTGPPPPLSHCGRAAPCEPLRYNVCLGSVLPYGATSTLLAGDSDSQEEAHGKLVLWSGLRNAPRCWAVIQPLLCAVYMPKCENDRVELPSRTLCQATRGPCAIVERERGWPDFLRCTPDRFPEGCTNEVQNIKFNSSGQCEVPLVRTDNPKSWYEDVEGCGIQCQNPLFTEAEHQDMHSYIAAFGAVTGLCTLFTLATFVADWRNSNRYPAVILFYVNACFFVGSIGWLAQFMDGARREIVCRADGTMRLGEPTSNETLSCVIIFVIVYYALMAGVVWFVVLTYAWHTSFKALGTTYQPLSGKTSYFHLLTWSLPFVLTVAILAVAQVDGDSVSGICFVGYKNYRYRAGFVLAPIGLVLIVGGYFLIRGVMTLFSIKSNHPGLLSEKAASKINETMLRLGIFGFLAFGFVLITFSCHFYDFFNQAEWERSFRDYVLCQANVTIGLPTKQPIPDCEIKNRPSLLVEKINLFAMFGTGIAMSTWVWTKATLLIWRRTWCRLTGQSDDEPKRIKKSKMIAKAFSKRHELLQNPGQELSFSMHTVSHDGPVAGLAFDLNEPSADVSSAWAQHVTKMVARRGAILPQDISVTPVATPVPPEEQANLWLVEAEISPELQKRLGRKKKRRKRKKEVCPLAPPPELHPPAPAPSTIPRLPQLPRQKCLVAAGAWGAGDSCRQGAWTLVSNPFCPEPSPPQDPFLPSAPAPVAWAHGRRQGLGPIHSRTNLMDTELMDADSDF
Test [3] addresses T1, Protein smoothened. The test is described as follows: Binding affinity to recombinant SMO Glu135 residue (unknown origin) at 20 uM preincubated for 3 hrs followed by UV irradiation for 15 mins by MS/MS analysis.
The target of test [4] is T1, Protein smoothened. Nature of the test: Binding affinity to recombinant SMO Leu498 residue (unknown origin) at 20 uM preincubated for 3 hrs followed by UV irradiation for 15 mins by MS/MS analysis.
The target of test [5] is T1, Protein smoothened. Nature of the test: Displacement of BODIPY-LY from SMO (unknown origin) expressed in HEK293F cells measured after 15 mins by flow cytometric analysis. The format is cell-based.
Test [6] deals with T1, Protein smoothened. Nature of the test: Binding affinity to recombinant SMO Lys186 residue (unknown origin) at 20 uM preincubated for 3 hrs followed by UV irradiation for 15 mins by MS/MS analysis.
In test [7] the target is T1, Protein smoothened. The test is described as follows: Binding affinity to recombinant SMO Glu518 residue (unknown origin) assessed as modification of NRPSLLVEK (511 to 519 residue) at 20 uM preincubated for 3 hrs followed by UV irradiation for 15 mins by MS/MS analysis.
The target in test [8] is Protein smoothened (Mus musculus) (UniProt P56726). Described as §1. The format is cell-based.
Protein smoothened (Mus musculus), sequence (P56726 whole entry): as the sequence (P56726 whole entry) above
The target of test [9] is T1, Protein smoothened. Nature of the test: Binding affinity to recombinant human SMO at 0.1 to 20 uM preincubated for 1 hr followed by 365 nm UV irradiation for 20 mins and subsequent addition of TAMRA-N3 measured after 1 hr by fluorescence-based SDS-PAGE analysis.
Test [10] addresses T1, Protein smoothened. Nature of the test: Binding affinity to recombinant SMO Gly529 residue (unknown origin) assessed as modification of INLFAMFGTGIAMSTWVWTKATLLIWRR peptide at 20 uM preincubated for 3 hrs followed by UV irradiation for 15 mins by MS/MS analysis.
For test [11], the target named is T1, Protein smoothened. Nature of the test: Binding affinity to recombinant SMO Gly527 residue (unknown origin) assessed as modification of INLFAMFGTGIAMSTWVWTKATLLIWRR peptide at 20 uM preincubated for 3 hrs followed by UV irradiation for 15 mins by MS/MS analysis.
For test [12], the target named is T1, Protein smoothened. The test is described as follows: Binding affinity to recombinant SMO Thr349 residue (unknown origin) at 20 uM preincubated for 3 hrs followed by UV irradiation for 15 mins by MS/MS analysis.
The target of test [13] is T1, Protein smoothened. The test is described as follows: Binding affinity to recombinant SMO Glu158 residue (unknown origin) at 20 uM preincubated for 3 hrs followed by UV irradiation for 15 mins by MS/MS analysis.
The target in test [14] is T1, Protein smoothened. Nature of the test: Binding affinity to recombinant SMO His103 residue (unknown origin) at 20 uM preincubated for 3 hrs followed by UV irradiation for 15 mins by MS/MS analysis.
Test [15] concerns the target T1, Protein smoothened. The test is described as follows: Binding affinity to recombinant SMO Ala345 residue (unknown origin) at 20 uM preincubated for 3 hrs followed by UV irradiation for 15 mins by MS/MS analysis.
For test [16], the target named is T1, Protein smoothened. The test is described as follows: Binding affinity to recombinant SMO Thr528 residue (unknown origin) assessed as modification of INLFAMFGTGIAMSTWVWTKATLLIWRR peptide at 20 uM preincubated for 3 hrs followed by UV irradiation for 15 mins by MS/MS analysis.

For `C[C@H]1C(=O)N(c2ccc(Cl)cc2)C(=O)N1c1ccccc1`, the pIC50 in [1] was 6.26.
For `C[C@H]1CN(c2ccc(Cl)cc2)C(=O)N1Cc1ccccc1`, in test [1], the negative-log IC50 (pIC50) was 5.34.
Turning to `C[C@H]1C(=O)N(c2ccc(Cl)cc2)C(=O)N1CCc1ccccc1`, the pIC50 in [1] is 7.04.
On to `C[C@H]1C(=O)N(c2ccc(Cl)cc2)C(=S)N1Cc1ccccc1`, for which the negative logarithm of the IC50 (pIC50) in test [1] was 5.42.
Consider `C[C@H]1C(=O)N(c2ccc(N=[N+]=[N-])cc2)C(=O)N1Cc1ccccc1`, for which the negative-log IC50 (pIC50) in [1] was 7.24. Also, the outcome in test [2], in test [3], in [4], in test [6] and in test [7] was Active. In addition, the pKi in [5] was 7.26.
Turning to `FC(F)(F)Oc1ccc(-c2ccnc(Nc3ccc4[nH]ncc4c3)n2)cc1`, the negative logarithm of the Ki (pKi) in [5] is 7.52.
For `C[C@H]1C(=O)N(C2CCCCC2)C(=O)N1Cc1ccccc1`, in test [1], the pIC50 was 5.10.
Still for that read-out and setting: the value for `C[C@H]1C(=O)N(c2c(F)c(F)c(F)c(F)c2F)C(=O)N1Cc1ccccc1` was 5.81; that for `C[C@H]1C(=O)N(c2ccc(Cl)cc2)C(=O)N1Cc1c(F)c(F)c(F)c(F)c1F` was 5.13.
Consider `C[C@H]1C(=O)N(c2ccc(Cl)cc2)C(=O)N1Cc1ccc(C2(C(F)(F)F)N=N2)cc1`, for which the result in test [8] was inactive. For the same compound, the inhibition result in test [5] is “inactive”.
Consider `C[C@H]1C(=O)N(c2ccc(Cl)cc2)C(=O)N1CC1CCCCC1`, for which, in test [1], the negative-log IC50 (pIC50) was 6.42.
For `C[C@H]1C(=O)N(Cc2ccc(Cl)cc2)C(=O)N1Cc1ccccc1`, the pIC50 in test [1] is 5.09.
For the compound `C#CCOc1ccc(N2C(=O)[C@H](C)N(Cc3ccc(N=[N+]=[N-])cc3)C2=O)cc1`, the pIC50 in test [1] was 7.51. In addition, the outcome in [9] was Active. In test [5], the negative logarithm of the Ki (pKi) is 7.55.
With `C[C@H]1C(=O)N(c2ccc(Cl)cc2)C(=O)N1Cc1ccc(N=[N+]=[N-])cc1`, the pIC50 in [1] is 8.52. Also, the outcome in test [10], in [11], in test [12], in test [13], in test [14] and in test [15] was Active. For the same compound, in test [16], the result was Active. This compound had a pKi in [5] of 7.35.
For the compound `C[C@H]1C(=O)N(c2ccc(Cl)cc2)C(=O)N1Cc1ccccc1`, the pIC50 in test [1] is 7.23. The compound further showed a negative logarithm of the Ki (pKi) in [5] of 7.48.
